Test system: stratum corneum sheets obtained from the forearm flexor region
Assay: Screening of candidate cosmetics for ameliorating effect on the stratum corneum (fluorescein staining after wetting and drying)
Settings: 3% aqueous solution, 1 h immersion, dried 2 hours at 0% humidity, room temperature; 0.2 w/v % uranin staining; 12 visual fields averaged
Experimental: Stratum corneum sheets obtained from the forearm flexor region using stratum corneum release tape were affixed to glass slides, and each affixed stratum corneum sheet was immersed for one hour in water (two sheets) as a control and in a 3% erythritol aqueous solution (ER) and a 3% AQUAINPOOL 1407 aqueous solution (AQ), as candidate cosmetics. Next, one of the water-wetted stratum corneum sheets was dried at 0% humidity, room temperature, while the other was dried for 2 hours at 90% humidity, room temperature. The stratum corneum sheets wetted with ER and AQ were dried for 2 hours at 0% humidity, room temperature. […] The taken image was corrected for distortion and digitized using analysis software, and the fluorescent brightness was calculated.

Compound: OC[C@@H](O)[C@@H](O)CO [ER, erythritol]
- fluorescent brightness compared with the water-wetted stratum corneum sheet (dried at 0% humidity): about the same
